Results from patent publication US9274101B2 (BIOLOG, Inc., priority 2001, dated 2016).

Key:
HepG2 cells = HepG2 cells cultured on CYTODEX 3 microcarriers, energy sources; type: cell-based, human; conditions: for activity at 30 µM / activity at 100 µM / activity at 330 µM / activity at 1000 µM / activity at 3300 µM / activity at 10000 µM / activity at 15000 µM / activity at 20000 µM: Homo sapiens, HepG2, 68 h, read-out: Responses of HepG2 Cells Cultured on Microcarriers After 68 hours in Culture and a 4 hour Color Development Period
Procedure, shortened: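 HepG2 cells on CYTODEX 3 microcarriers, held in methylcellulose-containing DME with 10% HI FBS lacking glucose, glutamine and pyruvate, exposed to test energy sources at 0.033–20 mM final. After 68 h at 37 °C, MTS/PMS read at 490 nm (ref 650 nm) after 4–8 h; cell-free background subtracted, normalized to % no-energy-source control.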

ten strains of E. coli = type: cell-based, Escherichia coli; further: key: +: indicates that the organism tested was capable of utilizing the carbon source listed; −: indicates that the organism tested was not capable of utilizing the carbon source listed; indicates weak positive reactions
HL-60 cells = HL-60 cells in PM1 and PM2 plates, MTS/MPMS color, % negative control; type: cell-based, human; conditions: L-glutamine 13.7 mM (well E1); citric acid 10.4 mM (well F2)
[1] = tested on: Salmonella typhimurium auxotrophs hisF645 and pyrCΔ73; type: cell-based

| SMILES | carbon source utilization (ten strains of E. coli) | activity at 30 µM (HepG2 cells; Conc. 0.03 mM) | activity at 100 µM (HepG2 cells; Conc. 0.10 mM) | activity at 330 µM (HepG2 cells; Conc. 0.33 mM) | activity at 1000 µM (HepG2 cells; Conc. 1.00 mM) | activity at 3300 µM (HepG2 cells; Conc. 3.3 mM) | activity at 10000 µM (HepG2 cells; Conc. 10 mM) | activity at 15000 µM (HepG2 cells; Conc. 15 mM) | activity at 20000 µM (HepG2 cells; Conc. 20 mM) | further results |
| --- | --- | --- | --- | --- | --- | --- | --- | --- | --- | --- |
| O=C1O[C@@H]([C@H](O)CO)[C@H](O)[C@H]1O [D-gal acid g-lactone] | – | – | – | – | – | – | – | – | – | Responses of HepG2 Cells Cultured on Microcarriers After 68 hours in Culture and a 4 hour Color Development Period (HepG2 cells; Conc. 0.03 mM): 99.4 % of negative control; Responses of HepG2 Cells Cultured on Microcarriers After 68 hours in Culture and a 4 hour Color Development Period (HepG2 cells; Conc. 0.10 mM): 100.2 % of negative control; Responses of HepG2 Cells Cultured on Microcarriers After 68 hours in Culture and a 4 hour Color Development Period (HepG2 cells; Conc. 0.33 mM): 89.0 % of negative control; Responses of HepG2 Cells Cultured on Microcarriers After 68 hours in Culture and a 4 hour Color Development Period (HepG2 cells; Conc. 1.00 mM): 89.4 % of negative control; Responses of HepG2 Cells Cultured on Microcarriers After 68 hours in Culture and a 4 hour Color Development Period (HepG2 cells; Conc. 3.3 mM): 101.7 % of negative control; Responses of HepG2 Cells Cultured on Microcarriers After 68 hours in Culture and a 4 hour Color Development Period (HepG2 cells; Conc. 10 mM): 95.2 % of negative control; Responses of HepG2 Cells Cultured on Microcarriers After 68 hours in Culture and a 4 hour Color Development Period (HepG2 cells; Conc. 15 mM): 98.6 % of negative control; Responses of HepG2 Cells Cultured on Microcarriers After 68 hours in Culture and a 4 hour Color Development Period (HepG2 cells; Conc. 20 mM): 74.1 % of negative control |
| O=C[C@H](O)[C@@H](O)[C@@H](O)[C@H](O)C(=O)O [D-galacturonic acid] | + | – | – | – | – | – | – | – | – | – |
| NC(=O)C[C@H](N)C(=O)O [L-asparagine] | + and − | – | – | – | – | – | – | – | – | – |
| NC(=O)CC[C@H](N)C(=O)O [L-glutamine] | + and − | 110% | 151% | 195% | 211% | 212% | 183% | 150% | 101% | response in words (HL-60 cells): strong positive response; response in words (HepG2 cells; 68 hours culture, responses greater than 140% of the negative control scored positive): narrow range of responsiveness |
| N[C@@H](Cc1c[nH]cn1)C(=O)O [L-histidine] | – | – | – | – | – | – | – | – | – | growth stimulation (well color) [1]: turned purple |
| Cc1cn([C@H]2C[C@H](O)[C@@H](CO)O2)c(=O)[nH]c1=O [Thymidine] | + | 87.9% | 101% | 97.9% | 99.4% | 89% | 71.4% | 65.2% | 34.5% | – |
